Results published in patent publication US12558322B2, “Control method of local release for target compounds by using patterning hydrogel to nanoporous membrane” (KNU-Industry Cooperation Foundation, priority 2018, dated 2026).

Experiments:
YD-10B cells [1] = experiment: Actin filament staining of YD-10B cells (colony formation); format: cell-based, human; conditions: 5-FU encapsulated in HAMA hydrogel array, 5 days
Protocol: To estimate the rate of apoptosis of tumor cells at a controlled release anticancer drug rate, YD-10B cells derived from human oral squamous cancer were cultured on a 15% (w/v) HAMA hydrogel-arrayed amphipathic membrane. The amphipathic membrane was prepared at a size of 20 mm×20 mm and was fixed at the bottom of the cell culture dish with the use of PDMS blocks as supporters to prevent floating in the culture media. Overall, YD-10B cells (100 μL, cell density of 1.0×10^6 cells/mL) were seeded on the HAMA hydrogel-arrayed amphipathic membrane that contained 5-FU. As a control group, YD-10B cells without 5-FU were seeded on the array. The cells were cultured in culture media [RPMI (RPMI 1640 medium, HEPES)] (Gibco, CA, USA) with 10% fetal bovine serum (FBS) (Gibco) and 1% penicillin/streptomycin (Gibco) in an incubator (MCO-18AIC, Sanyo, Japan) at 5% CO2 and 37.5° C. After 5 days, the live/dead assay [live/dead viability/cytotoxicity kit (Invitrogen, MA, USA)] was conducted to evaluate anticancer performance. […] The viability of the YD-10B cells on the amphipathic membrane was evaluated by a fluorescent microscope (Zeiss, Germany). The cytoplasm of live cells was stained with calcein-AM (green fluorescence, excitation wavelength: 488 nm/emission wavelength: 515 nm), while the DNA of dead cells was stained with EthD-1 as fluorescence red (excitation: 570 nm/emission: 602 nm). […]

YD-10B cells [2] = experiment: Live/dead assay of YD-10B cells on 5-FU containing HAMA hydrogel arrays; format: cell-based, human; conditions: 5 days
Protocol: To estimate the rate of apoptosis of tumor cells at a controlled release anticancer drug rate, YD-10B cells derived from human oral squamous cancer were cultured on a 15% (w/v) HAMA hydrogel-arrayed amphipathic membrane. The amphipathic membrane was prepared at a size of 20 mm×20 mm and was fixed at the bottom of the cell culture dish with the use of PDMS blocks as supporters to prevent floating in the culture media. Overall, YD-10B cells (100 μL, cell density of 1.0×10^6 cells/mL) were seeded on the HAMA hydrogel-arrayed amphipathic membrane that contained 5-FU. As a control group, YD-10B cells without 5-FU were seeded on the array. The cells were cultured in culture media [RPMI (RPMI 1640 medium, HEPES)] (Gibco, CA, USA) with 10% fetal bovine serum (FBS) (Gibco) and 1% penicillin/streptomycin (Gibco) in an incubator (MCO-18AIC, Sanyo, Japan) at 5% CO2 and 37.5° C. After 5 days, the live/dead assay [live/dead viability/cytotoxicity kit (Invitrogen, MA, USA)] was conducted to evaluate anticancer performance. The solution for the live/dead assay was mixed with 20 μL of Ethidium Homodimer-1 (EthD-1) and 5 μL of calcein-AM in 10 mL of DPBS in the dark room. The culture media were eliminated using a micropipette, and the residual media were washed twice by DPBS. The staining solution was added on the arrayed amphipathic membrane and incubated for 40 min. The viability of the YD-10B cells on the amphipathic membrane was evaluated by a fluorescent microscope (Zeiss, Germany). The cytoplasm of live cells was stained with calcein-AM (green fluorescence, excitation wavelength: 488 nm/emission wavelength: 515 nm), while the DNA of dead cells was stained with EthD-1 as fluorescence red (excitation: 570 nm/emission: 602 nm). Additionally, the actin filaments of cells were stained to verify the colony formations of tumor cells. For the fixation of cultured cells, the membrane was washed with DPBS and was immersed in 4% paraformaldehyde (PFA) for 15 min. Triton X-100 was used for permeabilization for 5 min at −20° C. on a PFA-immersed membrane. […]

## O=c1[nH]cc(F)c(=O)[nH]1 [5-FU]
YD-10B cells [1]
  cell growth and colony formation: can inhibit the growth and proliferation of cells
YD-10B cells [2]; 5-FU encapsulated in HAMA hydrogel array, vs without 5-FU
  reduction of adhesion rate (calcein-AM expression area): approximately 48%
YD-10B cells [2]; HAMA hydrogel arrays containing 5-FU
  viable cells (live/dead assay): only a few viable cells were visible
YD-10B cells [2]; cultured with 5-FU in HAMA hydrogel array
  adhesion area (calcein-AM): approximately 19,321 μm^2
